Measured values: paper PMC10583863 (European journal of medicinal chemistry, 2022)

Assays:
Format in all cases: cell-based, Mycobacterium tuberculosis
[1] = test system: NTB1 (dprE1, G387S)
[2] = test system: 53.8 (Rv0579, L240V)
[3] = test system: 88.1 (coaA, Q207R)
[4] = test system: DR1 (mmpl3, V681I)
[5] = test system: 88.7 (pyrG, V186G)
[6] = test system: 53.3 (Rv2466c, W28S)

Measured: MIC90

NNC(=O)c1ccncc1 [INH, Isoniazide]
0.025 µg/mL: all assays above
